Literature values as cited in patent publication US20070148249A1, “Method of preparation of oral solid dosage form with instant release of acting” (priority 2003, published 2007).
Like-named read-outs stand apart in the source and are kept apart here.

Solubility (in chloroform and lower alcohols): well soluble | Solubility (in water): almost insoluble
Compound: CC(C)(C)NC(=O)[C@H]1CC[C@H]2[C@@H]3CC[C@H]4NC(=O)C=C[C@]4(C)[C@H]3CC[C@]12C [Finasteride, (5α,17β)-N-(1,1-dimethylethyl)-3-oxo-4-azaandrost-1-en-17-carboxamide]
